According to article PMC11347161, “Sequence diversity of apidaecin-like peptides arresting the terminating ribosome” (Nucleic Acids Research, 2024):

Tested on: E. coli BL21 cells
Assay: Negative (depletion) selection of clones expressing Api variants, NGS
Type: cell-based
Settings: log2-fold change of clone abundance, three replicates, edgeR
Method: Prior to the library screening, pilot experiments were conducted to optimize arabinose concentration. To achieve this, E. coli BL21 cells transformed with the pApi plasmid carrying the wt Api gene were plated on LB/agar plates supplemented with Amp and increasing concentrations of arabinose in the 0.05–0.2% range. […] Subsequent library depletion experiments were carried out on plates containing 0.05% arabinose.
For the negative selection targeted at depleting the clones expressing active Api-like peptides, the 2 ml library stock containing a total of ∼2 × 10^9 colony forming units (cfu) was thawed, diluted 3-fold in LB medium and allowed to recover for 30 min at 37°C. Subsequently, the cultures with the recovered cells were thoroughly mixed, and equal volumes (300 μl) were plated on ten LB/Amp plates supplemented with 2% glucose (for the total library) or ten LB/Amp plates supplemented with 0.05% arabinose (for the library depleted of clones expressing active Api variants). After incubation at 37°C for 16 h, clones were washed off the plates and cell suspensions were used for preparation of the total plasmid, resulting in the pApi(Glu) and pApi(Ara) plasmid preps. The depletion experiments were carried out in three independent replicates.
For deep sequencing of the genes encoding Api-like peptides, the peptide-coding genes were PCR-amplified from the total pApi(Glu) and pApi(Ara) plasmids. Two 50 μl PCR reactions were carried out for each sample using Q5 DNA polymerase (New England Biolabs). The reactions were run in the manufacturer provided buffer, each reaction containing 20 ng of plasmid DNA and 10 pmol of primers Api_Lib_F_i5X and Api_Lib_R_i7X (Supplementary Table S2) which added specific bar codes to the individual samples. PCR amplification was carried out under the following conditions: 98°C, 30 s; 10 cycles of [98°C/10 s, 56°C/20 s, 72°C/10 s]; 72°C 120 s. The PCR products were size-fractionated and extracted from the denaturing 8% polyacrylamide gel. Bar-coded DNA libraries (Supplementary Figure S1B) were combined and sequenced on Illumina MiSeq after being spiked in with PhiX Control v3 library (Illumina) to compensate for sequence diversity of the sample.
Sequencing has generated >350 million total reads for the three unselected samples and > 300 million total reads for the depleted library samples. The raw reads were trimmed to the size of the peptide gene and those containing internal ambiguous bases or being less than 60 bases in length were discarded. The nucleotide sequences were translated into amino acid sequences and the peptides lacking N-terminal methionine or deviating from the size of the expected sequence were eliminated. Peptides with <100 reads in each of the pApi(Glu) samples were also discarded. Subsequently, the filtered data underwent differential abundance analysis using the standard workflow of edgeR within the R/Bioconductor package ([27]). This analysis generated logFC (the log2-fold change of unique peptides between Glu and Ara samples), q-values (adjusted P-values with the FDR correction), and log10 CPM values (log counts per million), detailed in Dataset 1. A volcano plot was generated in R to visualize the differential abundance of unique peptides based on these parameters.

[1] = sheet Negative Selection logFC>1, q<0.005 (putatively functional variants), arabinose vs glucose, endogenously expressed peptide
[2] = sheet diff-NS-All, induced (0.05% arabinose) vs non-induced (2% glucose), endogenously expressed peptide with N-terminal Met

Substance: MGNNRKVYIGEPRPPYPRL* [endogenously expressed Api library variant K6,G10,E11,Y16 (numbering includes Met)]
- Ara/Glu: logFC [1]: -4.01
- Ara/Glu: logFC [2]: -4.01

Substance: MGNNRNVYIAQPRPYHPRI* [endogenously expressed Api library variant N6,A10,Y15,I19 (numbering includes Met)]
- Ara/Glu: logFC [2]: -4.88

Substance: MLNNIGVQVPKPRPPHPRL* [endogenously expressed Api library variant L2,I5,G6,Q8,V9,K11 (numbering includes Met)]
- Ara/Glu: logFC [2]: -3.95

Substance: MTNNRKVYEPEPRPPHPRL* [endogenously expressed Api library variant T2,K6,E9,E11 (numbering includes Met)]
- Ara/Glu: logFC [1]: -4.06
- Ara/Glu: logFC [2]: -4.06
